In EP4458977A1, “SELF-ASSEMBLING PEPTIDE AMPHIPHILES AS RETROVIRAL TRANSDUCTION ENHANCERS” (Max-Planck-Gesellschaft zur Förderung der Wissenschaften …, priority 2023, dated 2024):
“And” between values parts separate entries of the source, which are not always exact repeats. Equal entries are not always repeated. “Also recorded” adds a separate entry of the source. Where two headings read alike, the source gives them in different places. Where a SMILES comes first, the peptide text is derived from it. Where no end group is shown, it is not given here. The star is where a group is joined. Palmitoyl = CCCCCCCCCCCCCCCC(=O)*

Experiments:
[1] = ATR-FT-IR determination of β-sheet content; type: physicochemical; settings: for β-sheet amount: 1 mg/mL in PBS lyophilized, integral at 1630 cm^-1 relative to 1650-1700 cm^-1; for β-sheet content / %: peak integration of parallel β-sheet at 1630 cm-1, 2nd derivative of ATR-IR spectra
Method in brief: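 From second-derivative spectra, β-sheet amount is the 1630 cm-1 integral over the 1650-1700 cm-1 (native) region. Spectra were taken on solid, lyophilized fibrils via diamond-crystal ATR, averaging 64 scans at 2 cm^-1 resolution.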

[2] = TEM of peptide assemblies (fibril formation / assembly); type: physicochemical; settings: for TEM morphology (in words): 1 mg/mL in PBS; for Assembly without hydrophob residue: corresponding peptide without hydrophobic moiety; for Assembly: peptide amphiphile
Method in brief: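 Peptides predissolved in DMSO at 10 mg/mL (stock), diluted in PBS to 650 µM or 1 mg/mL final and incubated 1 d at rt (20–25 °C) to form fibrils. Other concentrations obtained by diluting preformed fibrils; assemblies imaged by TEM.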

HeLa cells = experiment: Confocal laser scanning microscopy and degradation study with PA library and HeLa cells; type: cell-based; settings: for association with cellular membranes: 2 µg added to 20.000 HeLa cells, 30 min; for degradability (in words) / Degradability / % (rel. to initial particles > 10 µm^2): HeLa cells; for degradability (in words): 3 days; for Degradability / % (rel. to initial particles > 10 µm^2): 3 d relative to 30 min; for aggregate number decreases / degraded in presence of HeLa cells within 3 days: d3 relative to d0
Method in brief: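 HeLa cells (20,000/well) got Proteostat-stained PAs (2 µg peptide per 20.000 cells) with Hoechst nuclear stain, 30 min at 37°C, PBS-washed, then held 3 d at 37°C unwashed. Confocal imaging at d0 and d3 counted aggregates >10 µm^2 in 1008 × 1008 µm, three technical replicates. Degradation taken as d3/d0 aggregate number.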

[3] = Fluorescence microscopy of ThT-stained fibrils (µm-sized aggregates); type: physicochemical; settings: for fluorescent, µm-sized aggregates (ThT staining): 1 mg/mL stained with 50 µM ThT
Method in brief: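 Fibrils (1 mg mL^-1) mixed 1:9 with 50 µM ThT, giving 0.1 mg mL^-1 stained fibrils on glass. Imaged under 10x air objective with excitation 480/40 nm and emission 527/30 nm. Fibrils called distinct when no visible structures appeared in fluorescence or brightfield.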

HIV-1 = settings: for Infectivity enhancing N fold at 1.3 µM: relative to virus only; for enhancement of HIV-1 infection / transduction (in words): 6.5 µM, 1.3 µM, 0.26 µM;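 on all read-outs here: TZM-bl reporter cells exposed to HIV-1 with peptide fibrils, infection read out as β-galactosidase luminescence, compared with virus alone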
Description: HIV-1 Infection Assay with TZM-bl cells: The effect of peptide fibrils on HIV-1 infection was studied via a luminescence assay for β-galactosidase, which was reported by TZM-bl cells upon infection. The HIV-1 infection assay was conducted in three technical replicates and repeated in three independent experiments unless stated otherwise.

[4] = Zeta-potential measurement (dynamic light scattering); type: physicochemical
[5] = as above; type: physicochemical; settings: 1 mg/mL, PBS
Description: Zeta-potential: 60 µL of the peptides (1 mg mL-1) were diluted in 600 µL, 1 mM KCI solution and placed in a disposable folded capillary cuvette. All zeta-potential measurements were conducted by dynamic light scattering technology (Zetasizer, Malvern Instruments) and in triplicates for each sample. The derived count rate of the zeta potential measurement was used as information on the light scattering intensity and turbidity of the sample as a further indicator for microscopic aggregation.

[6] = Thioflavin T (ThT) fluorescence assay; type: physicochemical; parameters: key to ThT: + = ThT active; - = no ThT fluorescence observed; settings: ThT fluorescence; 1 mg/mL, PBS
Description: Transmission electron microscopy (TEM) measurements, Thioflavin (ThT), zeta-potential measurements for fibril characterization were prepared and conducted according to prior art procedures. […] Fibrils were defined as distinct, if no visible structures could be identified in fluorescence and brightfield microscopy. A peptide fibril was considered as ThT-active if the fluorescence intensity was at least twice as strong compared to the control (PBS containing 10% DMSO).

Compound	β-sheet amount [1] [%]	TEM morphology (in words) [2]	Assembly without hydrophob residue [2]	Assembly [2]	association with cellular membranes (HeLa cells)	degradability (in words) (HeLa cells)	Degradability / % (rel. to initial particles > 10 µm^2) (HeLa cells) [%]	Degradability / % (rel. to initial particles > 10 µm^2) (HeLa cells; listed as Pat 15) [%]	aggregate number decreases / degraded in presence of HeLa cells within 3 days (HeLa cells) [%]	fluorescent, µm-sized aggregates (ThT staining) [3]	enhances infectivity at 1.3 µM concentration, times more efficient compared to virus only infection (HIV-1) [times]	Infectivity enhancing N fold at 1.3 µM (HIV-1)	Infectivity enhancing N fold at 1.3 µM (HIV-1; listed as Pat 15) [N fold]	Zeta-Potential / mV [4] [mV]	Zeta Potential / mV [5]	ThT [6]	β-sheet content / % [1] [%]	formation of µm-sized aggregates in aqueous medium / PBS (in words) [3]	enhancement of HIV-1 infection / transduction (in words) (HIV-1)
CCCCCCCCCCCCCCCC(=O)N[C@H](C(=O)N[C@H](C(=O)N[C@@H](CCC(N)=O)C(=O)N[C@@H](CCCCN)C(=O)N[C@H](C(=O)N[C@@H](CCCCN)C(N)=O)[C@@H](C)CC)[C@@H](C)CC)[C@@H](C)CC [Pat15, C16-IIQKIK-NH2] (Palmitoyl-IIQKIK-NH2)	45	fibrillar morphologies	No	Yes	association with cellular membranes	degradable PA	-28	28	28	fluorescent, µm-sized aggregates	4	4±1 N fold	4	12.6					
CCCCCCCCCCCCCCCC(=O)N[C@@H](C)C(=O)NCC(=O)NCC(=O)N[C@@H](CCCNC(=N)N)C(=O)N[C@H](C(=O)N[C@@H](CCCCN)C(N)=O)C(C)C [Pat18, C16-AGGRVK-NH2] (Palmitoyl-AGGRVK-NH2)	56	fibrillar morphologies	No	Yes						no fluorescent, µm-sized aggregates	3	3±1 N fold		15.9					
CCCCCCCCCCCCCCCC(=O)N[C@@H](CC(C)C)C(=O)N[C@@H](CC(N)=O)C(=O)NCC(=O)NCC(=O)N[C@H](C(=O)N[C@@H](CCCCN)C(=O)N[C@@H](CCCCN)C(N)=O)C(C)C [Pat19, C16-LNGGVKK-NH2] (Palmitoyl-LNGGVKK-NH2)	34	fibrillar morphologies	No	Yes	association with cellular membranes	degradable PA	48		48	fluorescent, µm-sized aggregates	6	6 N fold and 6±1 N fold		19.4					
FQFKFKC-NH2 [P2, FQFKFKC-NH2]		Formation of fibrils; also recorded: twisted fibrils													+10.1 ± 3.0 mV	-	46	does not form µm-sized aggregates in PBS	inactive
VVVAAAEEE-NH2 [P3]		amorphous aggregates; also recorded: non-fibrillar amorphous aggregates													-21.2 ± 1.5 mV	-	46	does not form µm-sized aggregates in PBS	
VVVAAAKKK-NH2 [P1]		amorphous aggregates; also recorded: non-fibrillar amorphous aggregates													-2.3 ± 0.4 mV	-	48	does not form µm-sized aggregates in PBS	inactive
